{
  "source": "BindingDB's records for doi:10.7270/Q20P0XHD",
  "about": "(Burnham Center For Chemical Genomics, 2011)",
  "data": [
    {"biological_target": "T1, C-C chemokine receptor type 6 (Homo sapiens, UniProt P51684)", "T1 sequence (P51684 whole entry)": "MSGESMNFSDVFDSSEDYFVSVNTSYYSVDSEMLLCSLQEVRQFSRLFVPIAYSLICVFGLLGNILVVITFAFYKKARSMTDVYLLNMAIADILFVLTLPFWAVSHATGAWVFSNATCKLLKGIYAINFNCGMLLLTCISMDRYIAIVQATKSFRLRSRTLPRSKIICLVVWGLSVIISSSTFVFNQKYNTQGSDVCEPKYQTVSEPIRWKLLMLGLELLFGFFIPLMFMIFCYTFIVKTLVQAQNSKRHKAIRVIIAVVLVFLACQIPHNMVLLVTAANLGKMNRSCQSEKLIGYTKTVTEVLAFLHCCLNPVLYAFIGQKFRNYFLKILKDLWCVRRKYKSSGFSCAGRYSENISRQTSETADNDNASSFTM", "assay": "antagonism of CCR6 beta-arrestin recruitment – cell-based, luminescent beta-arrestin readout, dose response (AID 504728)", "units": {"IC50": "µM"}, "values": [
      {"smiles": "CC(NO)C(=O)C(=CN1CCCCC1)CN1CCCCC1", "note": "(centres undefined)", "IC50": "> 66.6"},
      {"smiles": "Cc1cc(C)nc(NNC=C2C(=O)CC(c3ccc(F)cc3)CC2=O)n1", "note": "(centres undefined)", "IC50": "> 66.6"},
      {"smiles": "O=C1Nc2ccc([N+](=O)[O-])cc2/C1=N/NC(=O)c1cc(-c2ccccc2Cl)nc2ccccc12", "note": "[2-(2-chlorophenyl)-N'-(2-keto-5-nitro-indol-3-yl)cinchoninohydrazide]", "IC50": "> 66.6"},
      {"smiles": "COC1=CC=CC(CN=Nc2nc(Nc3ccc([N+](=O)[O-])cc3)nc(N3CCCC3)n2)C1=O", "note": "(centres undefined) [2-hydroxy-3-methoxybenzaldehyde {4-[(4-nitrophenyl)amino]-6-pyrrolidin-1-yl-1,3,5-triazin-2-yl}hydrazone]", "IC50": 1.64},
      {"smiles": "O=Nc1c(C2C(=O)Nc3cc(Br)ccc32)[nH]c2ccccc12", "note": "(centres undefined) [6-bromoindirubin-3-oxime]", "IC50": "> 66.6"},
      {"smiles": "O=C1C([N+](=O)[O-])=CC=CC1CN=Nc1ccc2ccccc2n1", "note": "(centres undefined) [(6E)-2-nitro-6-[(2-quinolin-2-ylhydrazinyl)methylidene]cyclohexa-2,4-dien-1-one]", "IC50": "> 66.6"},
      {"smiles": "COc1cccc(CN=Nc2nc(Nc3ccccc3)nc(-n3nc(C)cc3C)n2)c1O", "note": "[(6E)-6-[[2-[4-(3,5-dimethylpyrazol-1-yl)-6-phenylazanyl-1,3,5-triazin-2-yl]hydrazinyl]methylidene]-2-methoxy-cyclohexa-2,4-dien-1-one]", "IC50": "> 66.6"},
      {"smiles": "CN(C)c1nc(N=NCc2ccccc2O)nc(Nc2ccc(F)cc2)n1", "note": "[(6E)-6-[[2-[4-(dimethylamino)-6-(4-fluoroanilino)-1,3,5-triazin-2-yl]hydrazinyl]methylidene]cyclohexa-2,4-dien-1-one]", "IC50": "> 66.6"},
      {"smiles": "O=C1C([N+](=O)[O-])=CC(Cl)=CC1CN=Nc1ccccn1", "note": "(centres undefined) [MLS000539830]", "IC50": "> 66.6"},
      {"smiles": "O=C1C=CC([N+](=O)[O-])=CC1CN=Nc1ccccn1", "note": "(centres undefined) [MLS000585015]", "IC50": "> 66.6"},
      {"smiles": "C/C=C(\\C)C(=O)OC1[C@H](OC(C)=O)C2(CO)C(CC1(C)C)C1=CCC3C4(C)CCC(O[C@@H]5O[C@H](C(=O)O)[C@@H](O[C@@H]6O[C@H](CO)[C@@H](O)[C@H](O)[C@H]6O)[C@H](O)[C@H]5O[C@H]5O[C@H](CO)[C@@H](O)[C@H](O)[C@H]5O)[C@](C)(CO)C4CCC3(C)[C@]1(C)C[C@H]2O", "note": "(some centres undefined) [MLS002695979]", "IC50": 16.4},
      {"smiles": "C=CCSC(N)=NN=CC1C=C(Br)C=C([N+](=O)[O-])C1=O", "note": "(centres undefined) [N''-[[(E)-(3-bromo-5-nitro-6-oxo-1-cyclohexa-2,4-dienylidene)methyl]amino]carbamimidothioic acid prop-2-enyl ester]", "IC50": "> 66.6"},
      {"smiles": "O=C1C(/C=N/c2ccc(N3CCOCC3)cc2)=CC(Cc2ccccc2)C=C1[N+](=O)[O-]", "note": "(centres undefined) [SMR000231104]", "IC50": "> 66.6"},
      {"smiles": "CCCC1CCC(=NNC(=S)NCCc2ccccc2)CC1", "note": "(centres undefined) [SMR000347544]", "IC50": "> 66.6"},
      {"smiles": "CC(C)(C)C1CCC(=NNC(=S)NCc2ccccc2)CC1", "note": "(centres undefined) [SMR000377499]", "IC50": "> 66.6"},
      {"smiles": "COc1ccc(-n2c(O)c(CN=Nc3nc(C)cc(C)n3)c3ccccc3c2=O)cc1OC", "note": "[SMR000385482]", "IC50": 0.594},
      {"smiles": "Cc1cc(N=NCc2ccc(F)cc2)nc(-n2nc(C)cc2C)n1", "note": "[SMR000426945]", "IC50": "> 66.6"},
      {"smiles": "CN1C(=O)C(C2CC(c3ccc(Cl)cc3)N=N2)C(=O)N(C)C1=O", "note": "(centres undefined) [SMR000439471]", "IC50": 14.9},
      {"smiles": "N#CC(=C1C=CC(N=O)C(Cl)=C1)c1ccc(Cl)cc1", "note": "(centres undefined) [SMR001570423]", "IC50": "> 66.6"}
    ]}
  ]
}
